Measured values published in US20240368214A1, “POSITIVE NMDA-MODULATING COMPOUNDS AND METHODS OF USE THEREOF” (SAGE THERAPEUTICS, INC., priority 2021, published 2024).
Read-outs that look alike come from different tables or passages of the source.

Molecular target: T1, recombinant human GluN1/GluN2A receptor (Homo sapiens, UniProt Q05586+Q12879)
T1 construct: expressed in transfected cells; host or cells: HEK293, tetracycline-inducible expression
Test: Whole-cell patch clamp of mammalian cells (Syncropatch 384i), NMDA modulation
Assay type: cell-based
In short: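 Modulation read as fold rise in peak current, (Icomp/Icontrol)−1, from 8 concentrations with ≥2 wells each, four-parameter fit. Compound pre-incubated 120 s then co-applied with 1 μM glutamate plus 100 μM glycine; tetracycline-inducible HEK293 GluN1/GluN2A cells clamped at −80 mV.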

[1] = Table B-2, HEK293 cells, human GluN1/GluN2A, glutamate 1 μM / glycine 100 μM, -80 mV, peak amplitude increase
[2] = Table B-2, HEK293 cells, human GluN1/GluN2A, glutamate 1 μM / glycine 100 μM, -80 mV, peak amplitude increase, read-out: EC50
[3] = Table C-2, HEK293 cells, human GluN1/GluN2A, glutamate 1 μM / glycine 100 μM, -80 mV, peak amplitude increase
[4] = Table C-2, HEK293 cells, human GluN1/GluN2A, glutamate 1 μM / glycine 100 μM, -80 mV, peak amplitude increase, read-out: EC50

T1 sequence (Q12879 23-1464, other chains not shown): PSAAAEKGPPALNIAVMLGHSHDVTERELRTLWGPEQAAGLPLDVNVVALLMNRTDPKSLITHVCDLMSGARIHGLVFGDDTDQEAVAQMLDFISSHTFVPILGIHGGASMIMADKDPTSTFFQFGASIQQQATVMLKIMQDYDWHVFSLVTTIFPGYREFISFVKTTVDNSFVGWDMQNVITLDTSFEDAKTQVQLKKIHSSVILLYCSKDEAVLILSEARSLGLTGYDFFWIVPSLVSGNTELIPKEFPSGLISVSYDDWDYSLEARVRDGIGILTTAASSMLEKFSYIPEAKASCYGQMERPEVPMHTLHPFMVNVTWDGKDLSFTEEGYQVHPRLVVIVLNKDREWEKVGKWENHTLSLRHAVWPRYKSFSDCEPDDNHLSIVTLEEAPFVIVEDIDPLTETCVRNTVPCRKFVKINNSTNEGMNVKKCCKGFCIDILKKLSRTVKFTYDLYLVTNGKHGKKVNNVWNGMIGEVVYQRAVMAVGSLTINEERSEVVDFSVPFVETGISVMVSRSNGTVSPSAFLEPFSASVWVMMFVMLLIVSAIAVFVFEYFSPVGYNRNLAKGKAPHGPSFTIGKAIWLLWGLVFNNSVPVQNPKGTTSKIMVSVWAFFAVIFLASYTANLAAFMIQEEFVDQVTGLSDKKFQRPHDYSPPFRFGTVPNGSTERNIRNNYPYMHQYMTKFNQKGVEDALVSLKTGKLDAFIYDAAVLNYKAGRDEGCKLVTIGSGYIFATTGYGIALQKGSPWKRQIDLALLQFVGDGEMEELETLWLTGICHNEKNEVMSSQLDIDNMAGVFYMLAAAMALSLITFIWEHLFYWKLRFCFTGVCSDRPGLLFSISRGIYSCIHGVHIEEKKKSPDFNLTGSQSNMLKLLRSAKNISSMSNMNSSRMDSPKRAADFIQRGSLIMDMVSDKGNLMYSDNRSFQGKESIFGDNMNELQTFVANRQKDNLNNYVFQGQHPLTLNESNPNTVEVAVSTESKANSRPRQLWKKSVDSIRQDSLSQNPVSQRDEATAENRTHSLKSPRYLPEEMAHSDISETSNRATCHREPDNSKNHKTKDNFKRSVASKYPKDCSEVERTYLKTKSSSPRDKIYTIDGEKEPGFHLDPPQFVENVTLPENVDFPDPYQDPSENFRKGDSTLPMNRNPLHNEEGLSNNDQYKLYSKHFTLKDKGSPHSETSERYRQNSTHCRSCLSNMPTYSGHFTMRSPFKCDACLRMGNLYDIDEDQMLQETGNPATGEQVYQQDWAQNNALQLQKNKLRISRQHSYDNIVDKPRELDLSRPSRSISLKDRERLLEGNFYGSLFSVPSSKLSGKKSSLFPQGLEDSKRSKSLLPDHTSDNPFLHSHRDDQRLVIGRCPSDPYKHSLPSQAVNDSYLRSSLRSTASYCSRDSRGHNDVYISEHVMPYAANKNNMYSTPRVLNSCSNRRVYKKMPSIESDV

Structure (SMILES)	Emax [1] [%]	EC50 [2] [µM]	Emax [3] [%]	EC50 [4] [µM]	EC50 [µM]
CC[C@]1(O)CC[C@@]2(C)[C@@H](CC[C@@H]3[C@@H]2CC[C@]2(C)[C@@H]([C@H](C)CCCC(C)(C)O)[C@H](C)C[C@@H]32)C1 [Compound B-22, (3S,5S,8R,9S,10S,13S,14S,16R,17S)-3-ethyl-17-((R)-6-hydroxy-6-methylheptan-2-yl)-10,13,16-trimethylhexadecahydro-1H-cyclopenta[a]phenanthren-3-ol]	> 200	0.1 to 0.5			
CC[C@]1(O)CC[C@@]2(C)[C@@H](CC[C@@H]3[C@@H]2CC[C@]2(C)[C@@H]([C@H](C)CC[C@H](O)C(C)C)[C@H](C)C[C@@H]32)C1 [Compound B-23, (3S,5S,8R,9S,10S,13S,14S,16R,17S)-3-ethyl-17-((2R,5S)-5-hydroxy-6-methylheptan-2-yl)-10,13,16-trimethylhexadecahydro-1H-cyclopenta[a]phenanthren-3-ol]	> 200	0.001 to 0.1			
CC[C@]1(O)CC[C@@]2(C)[C@@H](CC[C@@H]3[C@@H]2CC[C@]2(C)[C@@H]([C@H](C)CC[C@@H](O)C(C)C)[C@H](C)C[C@@H]32)C1 [Compound B-24, (3S,5S,8R,9S,10S,13S,14S,16R,17S)-3-ethyl-17-((2R,5R)-5-hydroxy-6-methylheptan-2-yl)-10,13,16-trimethylhexadecahydro-1H-cyclopenta[a]phenanthren-3-ol]	> 200	0.1 to 0.5			
CC[C@]1(O)CC[C@@]2(C)[C@@H](CC[C@@H]3[C@@H]2CC[C@]2(C)[C@@H]([C@H](C)CC[C@@H](O)C(C)(C)C#N)CC[C@@H]32)C1 [Compound C-1, (3R,6R)-6-((3S,5S,8R,9S,10S,13R,14S,17R)-3-ethyl-3-hydroxy-10,13-dimethylhexadecahydro-1H-cyclopenta[a]phenanthren-17-yl)-3-hydroxy-2,2-dimethylheptanenitrile]			> 200	0.001 to 0.1	
CC[C@]1(O)CC[C@@]2(C)[C@@H](CC[C@@H]3[C@@H]2CC[C@]2(C)[C@@H]([C@H](C)CC[C@H](O)C(C)(C)C#N)CC[C@@H]32)C1 [Compound C-2, (3S,6R)-6-((3S,5S,8R,9S,10S,13R,14S,17R)-3-ethyl-3-hydroxy-10,13-dimethylhexadecahydro-1H-cyclopenta[a]phenanthren-17-yl)-3-hydroxy-2,2-dimethylheptanenitrile]			100 to 200	0.001 to 0.1	
CC[C@]1(O)CC[C@@]2(C)[C@@H](CC[C@@H]3[C@@H]2CC[C@]2(C)[C@@H]([C@H](C)CC[C@@H](O)C4(C#N)CC4)CC[C@@H]32)C1 [Compound C-3, 1-((1R,4R)-4-((3S,5S,8R,9S,10S,13R,14S,17R)-3-ethyl-3-hydroxy-10,13-dimethylhexadecahydro-1H-cyclopenta[a]phenanthren-17-yl)-1-hydroxypentyl)cyclopropanecarbonitrile]			> 200	0.001 to 0.1	
CC[C@]1(O)CC[C@@]2(C)[C@@H](CC[C@@H]3[C@@H]2CC[C@]2(C)[C@@H]([C@H](C)CC[C@H](O)C4(C#N)CC4)CC[C@@H]32)C1 [Compound C-4, 1-((1S,4R)-4-((3S,5S,8R,9S,10S,13R,14S,17R)-3-ethyl-3-hydroxy-10,13-dimethylhexadecahydro-1H-cyclopenta[a]phenanthren-17-yl)-1-hydroxypentyl)cyclopropanecarbonitrile]			< 100	0.1 to 0.5	
CC[C@H](C#N)[C@H](O)CC[C@@H](C)[C@H]1CC[C@H]2[C@@H]3CC[C@H]4C[C@](O)(CC)CC[C@]4(C)[C@H]3CC[C@]12C [Compound C-5, (2R,3R,6R)-2-ethyl-6-((3S,5S,8R,9S,10S,13R,14S,17R)-3-ethyl-3-hydroxy-10,13-dimethylhexadecahydro-1H-cyclopenta[a]phenanthren-17-yl)-3-hydroxyheptanenitrile]			> 200	0.001 to 0.1	
CC[C@H](C#N)[C@@H](O)CC[C@@H](C)[C@H]1CC[C@H]2[C@@H]3CC[C@H]4C[C@](O)(CC)CC[C@]4(C)[C@H]3CC[C@]12C [Compound C-6, (2R,3S,6R)-2-ethyl-6-((3S,5S,8R,9S,10S,13R,14S,17R)-3-ethyl-3-hydroxy-10,13-dimethylhexadecahydro-1H-cyclopenta[a]phenanthren-17-yl)-3-hydroxyheptanenitrile]			100 to 200	0.1 to 0.5	
CC[C@@H](C#N)[C@H](O)CC[C@@H](C)[C@H]1CC[C@H]2[C@@H]3CC[C@H]4C[C@](O)(CC)CC[C@]4(C)[C@H]3CC[C@]12C [Compound C-7, (2S,3R,6R)-2-ethyl-6-((3S,5S,8R,9S,10S,13R,14S,17R)-3-ethyl-3-hydroxy-10,13-dimethylhexadecahydro-1H-cyclopenta[a]phenanthren-17-yl)-3-hydroxyheptanenitrile]			> 200	0.001 to 0.1	
CC[C@@H](C#N)[C@@H](O)CC[C@@H](C)[C@H]1CC[C@H]2[C@@H]3CC[C@H]4C[C@](O)(CC)CC[C@]4(C)[C@H]3CC[C@]12C [Compound C-8, (25,3S,6R)-2-ethyl-6-((3S,5S,8R,9S,10S,13R,14S,17R)-3-ethyl-3-hydroxy-10,13-dimethylhexadecahydro-1H-cyclopenta[a]phenanthren-17-yl)-3-hydroxyheptanenitrile]			< 100	0.001 to 0.1	
COC[C@]1(O)CC[C@@]2(C)[C@@H](CC[C@@H]3[C@@H]2CC[C@]2(C)[C@@H]([C@H](C)CC[C@@H](O)C(C)(C)C#N)CC[C@@H]32)C1 [Compound C-9, (3R,6R)-3-hydroxy-6-((3S,5S,8R,9S,10S,13R,14S,17R)-3-hydroxy-3-(methoxymethyl)-10,13-dimethylhexadecahydro-1H-cyclopenta[a]phenanthren-17-yl)-2,2-dimethylheptanenitrile]			< 100	0.001 to 0.1	
CC[C@]1(O)CC[C@@]2(C)[C@@H](CC[C@@H]3[C@@H]2CC[C@]2(C)[C@@H]([C@H](C)CC[C@H](O)CC#N)CC[C@@H]32)C1 [Compound C-10, (3S,6R)-6-((3S,5S,8R,9S,10S,13R,14S,17R)-3-ethyl-3-hydroxy-10,13-dimethylhexadecahydro-1H-cyclopenta[a]phenanthren-17-yl)-3-hydroxyheptanenitrile]			< 100	0.1 to 0.5	
CC[C@]1(O)CC[C@@]2(C)[C@@H](CC[C@@H]3[C@@H]2CC[C@]2(C)[C@@H]([C@H](C)CC[C@@H](O)CC#N)CC[C@@H]32)C1 [Compound C-11, (3R,6R)-6-((3S,5S,8R,9S,10S,13R,14S,17R)-3-ethyl-3-hydroxy-10,13-dimethylhexadecahydro-1H-cyclopenta[a]phenanthren-17-yl)-3-hydroxyheptanenitrile]			100 to 200	0.001 to 0.1	
CC[C@]1(O)CC[C@@]2(C)C(=CC[C@H]3[C@@H]4CC[C@H]([C@H](C)CC[C@@H](O)C(C)(C)C#N)[C@@]4(C)CC[C@@H]32)C1 [Compound C-12]			> 200		0.001 to 0.1
CC[C@]1(O)CC[C@@]2(C)C(=CC[C@H]3[C@@H]4CC[C@H]([C@H](C)CC[C@H](O)C(C)(C)C#N)[C@@]4(C)CC[C@@H]32)C1 [Compound C-13, (3S,6R)-6-((3S,8S,9S,10R,13R,14S,17R)-3-ethyl-3-hydroxy-10,13-dimethyl-2,3,4,7,8,9,10,11,12,13,14,15,16,17-tetradecahydro-1H-cyclopenta[a]phenanthren-17-yl)-3-hydroxy-2,2-dimethylheptanenitrile]			100 to 200	0.001 to 0.1	
CC[C@]1(O)CC[C@@]2(C)C(=CC[C@H]3[C@@H]4CC[C@H]([C@H](C)CC[C@H](O)C5(C#N)CCC5)[C@@]4(C)CC[C@@H]32)C1 [Compound C-18, 1-((1S,4R)-4-((3S,8S,9S,10R,13R,14S,17R)-3-ethyl-3-hydroxy-10,13-dimethyl-2,3,4,7,8,9,10,11,12,13,14,15,16,17-tetradecahydro-1H-cyclopenta[a]phenanthren-17-yl)-1-hydroxypentyl)cyclobutane-1-carbonitrile]				0.1 to 0.5	
CC[C@]1(O)CC[C@@]2(C)C(=CC[C@H]3[C@@H]4CC[C@H]([C@H](C)CC[C@@H](O)C5(C#N)CCC5)[C@@]4(C)CC[C@@H]32)C1 [Compound C-19, 1-((1R,4R)-4-((3S,8S,9S,10R,13R,14S,17R)-3-ethyl-3-hydroxy-10,13-dimethyl-2,3,4,7,8,9,10,11,12,13,14,15,16,17-tetradecahydro-1H-cyclopenta[a]phenanthren-17-yl)-1-hydroxypentyl)cyclobutane-1-carbonitrile]				0.001 to 0.1	
CC[C@]1(O)CC[C@@]2(C)C(=CC[C@H]3[C@@H]4CC[C@H]([C@H](C)CC[C@H](O)C5(C#N)CC5)[C@@]4(C)CC[C@@H]32)C1 [Compound C-20, 1-((1S,4R)-4-((3S,8S,9S,10R,13R,14S,17R)-3-ethyl-3-hydroxy-10,13-dimethyl-2,3,4,7,8,9,10,11,12,13,14,15,16,17-tetradecahydro-1H-cyclopenta[a]phenanthren-17-yl)-1-hydroxypentyl)cyclopropane-1-carbonitrile]				0.1 to 0.5	
